# Several values for one entry are separate records, joined by “and”; a condition that tells them apart may be missing. Equal values may be shown once.
# System: hCD45+CD56+γδTCR+invTCR+ cells
# Assay: Humanized mice experiments LYDEP 43 and 45, flow cytometry of blood and bone marrow
# Format: in vivo, mouse
# Description: Female huNOG-EXL mice (n=6) were obtained from Taconic Bioscience (Germantown, NY). Female huCD34-NCG mice (n=8) were obtained from Charles River (Wilmington, MA). Mice from both facilities were acclimated to laboratory conditions for at least 5-6 days.
# After first (03/01/2021) and second dose 1 week later (03/08/2021), when mice reached predetermined time point, they were bled up to 70 μL of blood/mouse via cheek puncture. The blood was analyzed via flow cytometry. After third dose 28 days after the previous dose (on Apr. 5, 2021), when mice reached the study time point, they were euthanized under standard operating procedure summarized here: Mice were anesthetized with isoflurane gas.
# Spleen, Thymus, femurs, and sternum were collected for all mice. Spleen and thymus were processed into single cell suspension for analysis via flow cytometry. Bones were cleaned of muscle using gauze soaked with 70% ethanol and processed for bone marrow to analyze via flow cytometry. Pancreas and colon dissection were performed according to video and instructional JoVE files. The feces were expelled via administering ice-cold PBS with a 22-gauge gavage tube from colon. Other organs like small intestines, cecum, kidneys, lungs, and liver were also collected. All organ weights were recorded after removing excess liquid from the exterior. Soft organs were first fixed in 4% PFA and then transferred to 70% ethanol 24 hrs later and stored at 4° C. Bones were stored directly in 70% ethanol at 4° C. Blood was processed for flow cytometry analysis, and serum collection.
# All flow cytometry was performed in house. Blood, spleen, thymus, and bone marrow were processed via standard staining protocol for flow cytometry. MACSQUANT 16 was used for flow cytometry. Antibody panels slightly varied between first, second and third dose. Markers in the flow panel after first dose analysis included Live/Dead, hCD45, mCD45, hCD56, hTCRgd, hCD3, hCD8, hCD16, hCD19, hCD14. Markers in the flow panel after second dose included all the above, plus hTCRab and hiTCR. In the blood analysis after second dose, 7AAD, CD14 and CD19 were included together in a dump channel. […] For the third dose panel design, when full sac was performed, all markers mentioned above were assigned unique channels to avoid overlap, but TCRab was not included in the final panel due to open channel limitations.
# For cheek bleeds, 70 ul of blood was collected in EDTA coated microtainer and proceeded for immunostaining. […] Blood was stained for live dead marker for 10 min at Room temperature and then for the surface antibodies mentioned above for 20 minutes at room temperature in dark. RBCs were lysed with BD FACS lysing buffer and washed with DPBS and resuspended in 300 ul DBPS. 250 ul of sample was run on MACSquant 16 flow cytometer.
# [1] = CR (Charles River) humanized mice, AVM0703 72 hrs
# [2] = Tac (Taconic) humanized mice, AVM0703 72 hrs
# [3] = blood, mouse 10 Taconic NOG-EXL, FIG. 24
smiles,measurement,setting,value
"C[C@@H]1C[C@H]2[C@@H]3CCC4=CC(=O)C=C[C@]4(C)[C@@]3(F)[C@@H](O)C[C@]2(C)[C@@]1(O)C(=O)COP(=O)(O)O [AVM0703, dexamethasone sodium phosphate]",hCD45+(CD56+gdTCR+ inTCR+),[1],4.4% and 1.8% and 2.3% and 3.5%
same,hCD45+(CD56+gdTCR+),[1],4.7% and 6.3% and 1.1% and 1.6%
same,hCD45+(CD56+gdTCR+),"CR (Charles River) humanized mice, AVM0703 96 hrs",1.1% and 0.4% and 4.4% and 1.4%
same,hCD45+(CD56+gdTCR+ inTCR+),[2],0.7%
same,hCD45+(CD56+gdTCR+),[2],10.5% and 3.4%
same,hCD45+(CD56+gdTCR+ inTCR+),"Tac (Taconic) humanized mice, AVM0703 96 hrs",22.6% and 41.9%
same,% of hCD45+CD56+gdTCR+ cells expressing invariant TCR,"blood, CRL-NCG humanized mice, >18 mg/kg HED",More than 97%
same,"bi-specific immune cell mobilization, % of hCD45+ cells","blood, humanized mice, >18 mg/kg HED",2-12%
same,% of hCD45+ dim CD56+ gdTCR+ cells positive for CD8 and for CD16,[3],More than 80%
same,"CD56+ TCRγδ+ cells, % of hCD45+ cells",[3],12%
same,"bi-specific immune cells, % of hCD45+ cells","blood, mouse M1, CRL-NCG, >18 mg/kg HED",3.35%
same,"bi-specific immune cells, % of hCD45+ cells","blood, mouse M3, CRL-NCG, >18 mg/kg HED",4.13%
same,"bi-specific immune cells, % of hCD45+ cells","blood, mouse M5, CRL-NCG, >18 mg/kg HED",5.14%
same,"bi-specific immune cells, % of hCD45+ cells","blood, mouse M7, CRL-NCG, >18 mg/kg HED",2.37%
same,% of human CD45+CD56+ cells bispecific for TCRγδ and invariant TCR and CD16 positive,"bone marrow, 48-60 hours after a third repeat dose of 32 mg/kg HED",More than 60%
same,expression and mobilization of human CD56+γδTCR+invTCR+ immune cells,"both vendors, all 6 umbilical cord blood donors, 32 mg/kg DP oral",induced the expression and mobilization
same,% of bispecific γδTCR+invTCR+ bone marrow cells that are CD16+,"humanized mice, >18 mg/kg HED",Around 90%
same,"bi-specific immune cells in bone marrow, % of hCD45+ cells","humanized mice, >18 mg/kg HED",0.3-8.5%
